Article PMC7486940, “Pre-symptomatic Caspase-1 inhibitor delays cognitive decline in a mouse model of Alzheimer disease and aging” (Nature Communications, 2020)

Columns and labels:
J20 mice [1] = assay: open field; type: in vivo, mouse; conditions: 50 mg/kg IP 3x/week for 1 month, 4- to 20-week WO
Description: (§1) VX-765 (Adooq Bioscience, Irvine, CA, USA) was dissolved 5 mg • ml^−1 in 20% cremophor in dH2O[60] (Sigma-Aldrich, ON, Canada) and administered IPWT and J20 mice received three injections per week of either 50 mg • kg^−1 VX-765 or 20% cremophor vehicle for 4 weeks between 2 and 3 months of age. Mice were longitudinally followed starting 4 weeks after the last injection [4-week washout (WO)], then every other month at 12- and 20-week WO (6 and 8 months of age, respectively). Intermediate 8- and 16-week WO periods were also looked at with a smaller number of mice. After each WO period, animals were randomly chosen, independent of behavioural performance, for sacrifice and assigned to either histological or biochemical analysis (Fig. 2a).
(§2) Open-field and novel object recognition (NOR) were measured at all WO periods. The Barnes maze was assessed at 12- and 20-week WO. Open field: Mice were placed in an open-field chamber, composed of a plexiglass box with no ceiling and white floor, and allowed to explore for 5 min. NOR: Mice were pre-exposed to two identical objects in the open-field chamber for 5 min. Two hours after pre-exposure, mice were placed back into the chamber and exposed to one familiar object and one novel object for 5 min (test phase). Mice were exposed to a specific object only once across multiple test sessions. Barnes maze: Learning acquisition (days 1–4)—each mouse was trained to find the target and enter the escape box within 180 s. Four trials per day, ~15 min apart, were performed for 4 consecutive days. Probe (day 5)—a single, 90 s trial was performed on each mouse to measure primary latency and number of errors to reach the blocked target. Target hole location was changed between the two separate test sessions. Behavioural scoring was blinded to mouse genotype and treatment.

WT mice = assay: open field; type: in vivo, mouse; conditions: 50 mg/kg IP 3x/week for 1 month
Description: as §1, §2

CD68 = CD68 immunostaining of phagocytic microglia and macrophages; type: in vivo, mouse; conditions: VX-765-treated J20; 20-week WO; no staining in any vehicle-treated J20
Description: as §1
Mice for immunohistochemistry were isoflurane anesthetized and perfused with ice-cold 4% paraformaldehyde in 0.1 M PBS (Sigma-Aldrich). Brains were post-fixed overnight in 10% neutral-buffered formalin (ThermoFisher Scientific, ON, Canada) and transferred to 70% ethanol for paraffin embedding and sectioning at 4 μm. Tissue slides underwent heat-induced antigen retrieval with citrate or EDTA buffer. Immunostaining was performed using the Dako Autostainer Plus slide processor and EnVision Flex system (Dako, ON, Canada). […]

[2] = female, C57BL/6J, mouse, in vivo, ip, 50 mg/kg, 0.25 h
Description: (§3) Plasma, whole brain and CSF concentrations of VX-765 and its active metabolite, VRT-043198, were determined by LC-MS/MS at Paraza Pharma (Montreal, QC, Canada). Fourteen C57BL/6J female mice received a single IP dose of 50 mg · kg^−1 VX-765 and 2 mice per time point were euthanized at 0.25, 0.5, 1, 3, 6, 8 and 24 h post-injection. Mice were isoflurane anesthetized to collect CSF and perform a cardiac puncture followed by whole body perfusion with PBS. Plasma samples were extracted 1:1 in spiking solution and internal standard solution containing 0.1 μM glyburide in acetonitrile. Brain and CSF samples were extracted 1:1 in spiking solution and internal standard solution containing 0.2 μM labetalol in 50:50 methanol:acetonitrile. Samples were centrifuged at 4000 × g for 10 min at 4 °C, the plasma supernatant diluted 1:1 and the brain and CSF supernatant diluted 1:2 in H2O, and 5 μl was injected into a Quantis LC-MS/MS system for analysis.

Casp11 = test system: Casp11; design: method as in Flores et al., Nature Communications 2018; conditions: ref Flores et al., Nature Communications 2018; cited from earlier work
J20 mice [3] = test system: J20 mice; design: method as in PMID 30254377; conditions: cited from earlier work
[4] = test system: experimental allergic encephalitis multiple sclerosis mouse model; design: method as in PMID 29895691; conditions: cited from earlier work
alpha-synuclein = test system: alpha-synuclein; design: method as in PMID 27482083; conditions: in vitro; cited from earlier work
in vivo = conditions: female, C57BL/6J, mouse, ip, 50 mg/kg; for half-life: Half-life (t1/2) in plasma; for MRT inf: MRTinf in plasma
Description: as §3

Structure (SMILES): CCO[C@@H]1OC(=O)C[C@@H]1NC(=O)[C@@H]1CCCN1C(=O)[C@@H](NC(=O)c1ccc(N)c(Cl)c1)C(C)(C)C [VX-765, (S)-1-((S)-2-{[1-(4-amino-3-chloro-phenyl)-methanoyl]-amino}-3,3-dimethyl-butanoyl)-pyrrolidine-2-carboxylic acid ((2R,3S)-2-ethoxy-5-oxo-tetrahydro-furan-3-yl)-amide]
- open field hyperactivity (distance travelled, quadrant entries) (J20 mice [1]): attenuated hyperactivity in J20 mice only at 4-week WO
- open field activity (WT mice; WT, all WO periods): had no effect on WT mice at any WO period
- open field locomotor activity, time moving, thigmotaxis (WT mice; between vehicle and VX-765 treatment): no differences in locomotor activity, time moving or thigmotaxis
- mice with CD68 positive staining (CD68): four out of the five
- CSF concentration relative to respective in vitro Casp1 IC50 [2]: 100 fold
- brain concentration relative to respective in vitro Casp1 IC50 [2]: 50 fold
- plasma concentration relative to respective in vitro Casp1 IC50 [2]: 100 fold
- IC50 for Casp11 compared to Casp1 (Casp11): over 100 fold
- toxicity (J20 mice [3]): non-toxic
- memory deficits, inflammation, synaptic loss and Aβ accumulation (J20 mice [3]; given at the onset of the J20 mouse symptoms): reverses spatial and episodic memory deficits, inflammation and synaptic loss, and prevents progressive Aβ accumulation
- inflammasome-related gene expression, axonal injury, behaviour [4]: reduce inflammasome-related gene expression, axonal injury, improve behaviour
- alpha-synuclein toxicity (alpha-synuclein): protect against alpha-synuclein toxicity
- concentration at 0.25 h (in vivo; CSF concentration, Mean): 330 nM
- concentration at 0.5 h (in vivo; CSF concentration, Mean): 620 nM
- concentration at 1 h (in vivo; CSF concentration, Mean): 80 nM
- concentration at 3 h (in vivo; CSF concentration, Mean): 60 nM
- concentration at 6 h (in vivo; CSF concentration, Mean): 60 nM
- concentration at 8 h (in vivo; CSF concentration, Mean): 100 nM
- concentration at 0.25 h (in vivo; CSF concentration, Mouse 1): 210 nM
- concentration at 0.5 h (in vivo; CSF concentration, Mouse 1): 70 nM
- concentration at 1 h (in vivo; CSF concentration, Mouse 1): 60 nM
- concentration at 3 h (in vivo; CSF concentration, Mouse 1): 70 nM
- concentration at 6 h (in vivo; CSF concentration, Mouse 1): 50 nM
- concentration at 8 h (in vivo; CSF concentration, Mouse 1): 70 nM
- concentration at 0.25 h (in vivo; CSF concentration, Mouse 2): 450 nM
- concentration at 0.5 h (in vivo; CSF concentration, Mouse 2): 1170 nM
- concentration at 1 h (in vivo; CSF concentration, Mouse 2): 100 nM
- concentration at 3 h (in vivo; CSF concentration, Mouse 2): 40 nM
- concentration at 6 h (in vivo; CSF concentration, Mouse 2): 60 nM
- concentration at 8 h (in vivo; CSF concentration, Mouse 2): 130 nM
- Cmax (in vivo; Cmax in CSF, Mean): 690 nM
- Cmax (in vivo; Cmax in CSF, Mouse 1): 210 nM
- Cmax (in vivo; Cmax in CSF, Mouse 2): 1170 nM
- Cmax (in vivo; Cmax in brain, Mean): 160 nM
- Cmax (in vivo; Cmax in brain, Mouse 1): 240 nM
- Cmax (in vivo; Cmax in brain, Mouse 2): 90 nM
- Cmax (in vivo; Cmax in plasma, Mean): 1590 nM
- Cmax (in vivo; Cmax in plasma, Mouse 1): 1540 nM
- Cmax (in vivo; Cmax in plasma, Mouse 2): 1630 nM
- half-life (in vivo; Mean): 192 min
- half-life (in vivo; Mouse 1): 193 min
- half-life (in vivo; Mouse 2): 190 min
- MRT inf (in vivo; Mean): 313 min
- MRT inf (in vivo; Mouse 1): 288 min
- MRT inf (in vivo; Mouse 2): 338 min
- Tmax (in vivo; Tmax in CSF, Mean): 22.8 min
- Tmax (in vivo; Tmax in CSF, Mouse 1): 15 min
- Tmax (in vivo; Tmax in CSF, Mouse 2): 30 min
- Tmax (in vivo; Tmax in brain, Mean): 22.8 min
- Tmax (in vivo; Tmax in brain, Mouse 1): 15 min
- Tmax (in vivo; Tmax in brain, Mouse 2): 30 min
- Tmax (in vivo; Tmax in plasma, Mean): 45 min
- Tmax (in vivo; Tmax in plasma, Mouse 1): 30 min
- Tmax (in vivo; Tmax in plasma, Mouse 2): 60 min
- concentration at 0.25 h (in vivo; brain concentration, Mean): 160 nM
- concentration at 0.5 h (in vivo; brain concentration, Mean): 70 nM
- concentration at 0.25 h (in vivo; brain concentration, Mouse 1): 240 nM
- concentration at 0.5 h (in vivo; brain concentration, Mouse 1): 50 nM
- concentration at 0.25 h (in vivo; brain concentration, Mouse 2): 70 nM
- concentration at 0.5 h (in vivo; brain concentration, Mouse 2): 90 nM
- concentration at 0.25 h (in vivo; plasma concentration, Mean): 290 nM
- concentration at 0.5 h (in vivo; plasma concentration, Mean): 1010 nM
- concentration at 1 h (in vivo; plasma concentration, Mean): 1250 nM
- concentration at 3 h (in vivo; plasma concentration, Mean): 400 nM
- concentration at 6 h (in vivo; plasma concentration, Mean): 330 nM
- concentration at 8 h (in vivo; plasma concentration, Mean): 320 nM
- concentration at 24 h (in vivo; plasma concentration, Mean): 10 nM
- concentration at 0.25 h (in vivo; plasma concentration, Mouse 1): 310 nM
- concentration at 0.5 h (in vivo; plasma concentration, Mouse 1): 1540 nM
- concentration at 1 h (in vivo; plasma concentration, Mouse 1): 870 nM
- concentration at 3 h (in vivo; plasma concentration, Mouse 1): 450 nM
- concentration at 6 h (in vivo; plasma concentration, Mouse 1): 430 nM
- concentration at 8 h (in vivo; plasma concentration, Mouse 1): 200 nM
- concentration at 24 h (in vivo; plasma concentration, Mouse 1): 8 nM
- concentration at 0.25 h (in vivo; plasma concentration, Mouse 2): 270 nM
- concentration at 0.5 h (in vivo; plasma concentration, Mouse 2): 490 nM
- concentration at 1 h (in vivo; plasma concentration, Mouse 2): 1630 nM
- concentration at 3 h (in vivo; plasma concentration, Mouse 2): 350 nM
- concentration at 6 h (in vivo; plasma concentration, Mouse 2): 220 nM
- concentration at 8 h (in vivo; plasma concentration, Mouse 2): 450 nM
- concentration at 24 h (in vivo; plasma concentration, Mouse 2): 14 nM
